Test results from patent US12226412B2, “Heteroaryl-ketone fused azadecalin glucocorticoid receptor modulators” (Corcept Therapeutics, Inc., priority 2012, dated 2025).
Read-outs that look alike come from different tables or passages of the source.

Columns and labels:
[1] = tested on: induction of TAT by dexamethasone in HepG2 cells; assay: HepG2 tyrosine aminotransferase (TAT) assay; type: cell-based, human
Experimental: Example 21. HepG2 Tyrosine Aminotransferase (TAT) Assay
Glucocorticoid mediated activation of TAT occurs by transactivation of glucocorticoid response elements in the TAT promoter by glucocorticoid receptor agonist complex.
TAT activity was measured as outlined in the literature by A. Ali et al., J. Med. Chem., 2004, 47, 2441-2452.
HepG2 cells were cultured using MEME media supplemented with 10% (v/v) foetal bovine serum; 2 mM L-glutamine and 1% (v/v) NEAA at 37° C., 5%/95% (v/v) CO2/air. The HepG2 cells were counted and adjusted to yield a density of 0.125×10^6 cells/ml in RPMI 1640 without phenol red, 10% (v/v) charcoal stripped FBS, 2 mM L-glutamine and seeded at 25,000 cells/well in 200 μl into 96 well, sterile, tissue culture micro titre plates, and incubated at 37° C., 5% CO2 for 24 hours
Growth media was removed and replaced with assay media {RPMI 1640 without phenol red, 2 mM L-glutamine+10 μM forskolin}. […] Compounds were serially half log diluted in 100% (v/v) dimethylsupfoxide from a 10 mM stock.
HepG2 cells were then lysed with 30 μl of cell lysis buffer containing a protease inhibitor cocktail for 15 minutes at 4° C. 155 μl of substrate mixture was then added containing 5.4 mM Tyrosine sodium salt, 10.8 mM alpha ketoglutarate and 0.06 mM pyridoxal 5′ phosphate in 0.1M potassium phosphate buffer (pH 7.4). After 2 hours incubation at 37° C. the reaction was terminated by the addition of 15 μl of 10M aqueous potassium hydroxide solution, and the plates incubated for a further 30 minutes at 37° C. The TAT activity product was measured by absorbance at […].
[compound] and fitting the data to a 4 parameter logistic equation.

human recombinant GR = target: T1, human recombinant GR (Homo sapiens, UniProt P04150); assay: Human glucocorticoid receptor (GR) fluorescence polarisation (FP) binding assay
T1 construct: purchased PanVera P2812
T1 sequence (P04150 1-777): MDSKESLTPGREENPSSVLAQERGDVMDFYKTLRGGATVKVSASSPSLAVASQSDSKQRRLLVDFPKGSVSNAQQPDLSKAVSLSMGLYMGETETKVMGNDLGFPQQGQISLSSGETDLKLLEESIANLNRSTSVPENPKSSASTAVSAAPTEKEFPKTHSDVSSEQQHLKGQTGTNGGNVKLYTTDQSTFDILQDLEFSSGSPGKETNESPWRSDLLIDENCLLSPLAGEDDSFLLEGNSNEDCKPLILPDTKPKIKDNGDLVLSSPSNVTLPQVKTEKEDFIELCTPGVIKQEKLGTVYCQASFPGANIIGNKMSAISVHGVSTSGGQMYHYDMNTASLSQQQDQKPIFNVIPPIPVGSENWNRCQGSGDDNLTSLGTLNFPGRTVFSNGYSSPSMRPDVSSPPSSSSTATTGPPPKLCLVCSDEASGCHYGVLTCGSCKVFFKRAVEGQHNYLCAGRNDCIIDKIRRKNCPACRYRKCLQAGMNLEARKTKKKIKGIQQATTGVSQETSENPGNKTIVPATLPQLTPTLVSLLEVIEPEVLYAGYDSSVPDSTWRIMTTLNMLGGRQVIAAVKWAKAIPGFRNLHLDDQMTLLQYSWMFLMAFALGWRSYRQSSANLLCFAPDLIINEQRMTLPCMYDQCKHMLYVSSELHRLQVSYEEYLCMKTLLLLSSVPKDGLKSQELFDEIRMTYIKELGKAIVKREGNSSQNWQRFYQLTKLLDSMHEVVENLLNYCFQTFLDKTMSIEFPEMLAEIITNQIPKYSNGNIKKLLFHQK
Experimental: Human Glucocorticoid Receptor (GR) Fluorescence Polarisation (FP) Binding Assay
The following is a description of a FP assay for measuring compound inhibition of labelled glucocorticoid binding to the human recombinant GR.
The binding affinity of test compounds was determined using a FP binding assay using human recombinant GR (PanVera P2812) and a fluorescent labelled glucocorticoid ligand (Fluorome GS Red) (PanVera P2894). The presence of inhibitors prevents the formation of a GS Red/GR complex resulting in a decrease in the measured polarisation value. The change in polarisation value in the presence of test compounds is used to calculate the binding affinity of the compound for GR.
This assay was performed in 384 well, black, round-bottom, polypropylene micro titre plates in a final volume of 20 μl. The assay contained 5 μl 1 nM GR (final concentration), 5 μl 0.5 nM Fluorome GS Red (final concentration) in the presence of 10 μl test compounds. Positive control wells (high polarisation) receive, 10 μl 2% (v: v) DMSO vehicle (1% (v/v) final concentration)+5 μl 1 nM GR and 5 μl 0.5 nM Fluorome GS Red. […] Assay blank background wells (used for normalisation) receive 15 μl 1× GS screening buffer+5 μl GR.
Compounds were prepared as solubilised solids at 10 mM in DMSO. On the day of assay, an 8 point half-log serial dilution (55 μl DMSO+25 μl compound solution) was prepared. A 1:50 dilution (1 μl compound solution+49 μl 1× GR screening buffer) was prepared for each compound. The compounds were prepared at 2× final assay concentration.
The plates were mixed and incubated for 4 hour at room temperature.
10× GR screening buffer (100 mM potassium phosphate pH 7.4, 200 mM Na2MoO4, 1 mM EDTA, 20% (v/v) DMSO). To prepare 1× GR screening buffer, combine 1 ml 10× GR screening buffer (PanVera P2814)+1 ml stabilising peptide (PanVera P2815)+7.95 ml 4° C. MQ water. Add 50 μl 1M DTT, vortex and place on ice until use.

[2] = HepG2 cells, challenge of 100 nM dexamethasone, Ki from IC50 by Cheng and Prusoff equation
[3] = human recombinant GR, fluorescence polarisation binding assay, read-out: GR binding

Ki (human recombinant GR; [3]) [nM] | SMILES | Ki [1, 2] [nM] | Ki [1] [nM] | Ki (human recombinant GR) [nM]
< 0.5 | Cc1ccnc(C(=O)[C@]23Cc4cnn(-c5ccc(F)cc5)c4C=C2CCN(S(=O)(=O)c2cc(F)cc(F)c2)C3)c1 [Example 11W, (R)-(6-((3,5-difluorophenyl)sulfonyl)-1-(4-fluorophenyl)-4,4a,5,6,7,8-hexahydro-1H-pyrazolo[3,4-g]isoquinolin-4a-yl)(4-methylpyridin-2-yl)methanone] | < 20 | – | –
> 1 | CCn1nncc1S(=O)(=O)N1CCC2=Cc3c(cnn3-c3ccc(F)cc3)C[C@]2(C(=O)c2ccccn2)C1 [Example 11CI, (R)-(6-((1-ethyl-1H-1,2,3-triazol-5-yl)sulfonyl)-1-(4-fluorophenyl)-4,4a,5,6,7,8-hexahydro-1H-pyrazolo[3,4-g]isoquinolin-4a-yl)(pyridin-2-yl)methanone] | 20 to 100 | – | –
0.5 to 1 | Cc1ccc(S(=O)(=O)N2CCC3=Cc4c(cnn4-c4ccc(F)cc4)C[C@]3(C(=O)c3nccn3C)C2)cc1 [Example 13, (R)-(1-(4-fluorophenyl)-6-tosyl-4,4a,5,6,7,8-hexahydro-1H-pyrazolo [3,4-g]isoquinolin-4a-yl)(1-methyl-1H-imidazol-2-yl)methanone] | 20 to 100 | – | –
< 0.5 | O=C(c1ccccn1)[C@]12Cc3cnn(-c4ccc(F)cc4)c3C=C1CCN(S(=O)(=O)c1cc(F)cc(F)c1)C2 [Example 11J, (R)-(6-((3,5-difluorophenyl)sulfonyl)-1-(4-fluorophenyl)-4,4a,5,6,7,8-hexahydro-1H-pyrazolo[3,4-g]isoquinolin-4a-yl)(pyridin-2-yl)methanone] | < 20 | – | –
< 0.5 | Cc1cccc(S(=O)(=O)N2CCC3=Cc4c(cnn4-c4ccc(F)cc4)C[C@]3(C(=O)c3cc(C)ccn3)C2)c1 [Example 12G, (R)-(1-(4-fluorophenyl)-6-(m-tolylsulfonyl)-4,4a,5,6,7,8-hexahydro-1H-pyrazolo[3,4-g]isoquinolin-4a-yl)(4-methylpyridin-2-yl)methanone] | < 20 | – | –
< 0.5 | Cc1ccc(S(=O)(=O)N2CCC3=Cc4c(cnn4-c4ccc(F)cc4)C[C@]3(C(=O)c3ccccn3)C2)cc1C [Example 11M, (R)-(6-((3,4-dimethylphenyl)sulfonyl)-1-(4-fluorophenyl)-4,4a,5,6,7,8-hexahydro-1H-pyrazolo[3,4-g]isoquinolin-4a-yl)(pyridin-2-yl)methanone] | < 20 | – | –
< 0.5 | Cc1cnc(C(=O)[C@]23Cc4cnn(-c5ccc(F)cc5)c4C=C2CCN(S(=O)(=O)c2ccc(Cl)c(Cl)c2)C3)s1 [Example 12O, (R)-(6-((3,4-dichlorophenyl)sulfonyl)-1-(4-fluorophenyl)-4,4a,5,6,7,8-hexahydro-1H-pyrazolo[3,4-g]isoquinolin-4a-yl)(5-methylthiazol-2-yl)methanone] | – | – | –

The remaining lines, values behind:

SMILES | Ki (human recombinant GR; [3]) [nM] | Ki [1, 2] [nM] | Ki [1] [nM] | Ki (human recombinant GR) [nM]
O=C(c1cc(C(F)(F)F)ccn1)[C@]12Cc3cnn(-c4ccc(F)cc4)c3C=C1CCN(S(=O)(=O)c1cn[nH]c1)C2 [Example 11BO, (R)-(6-((1H-pyrazol-4-yl)sulfonyl)-1-(4-fluorophenyl)-4,4a,5,6,7,8-hexahydro-1H-pyrazolo[3,4-g]isoquinolin-4a-yl)(4-(trifluoromethyl)pyridin-2-yl)methanone] | < 0.5 | < 20 | – | –
O=C(c1cncs1)[C@]12Cc3cnn(-c4ccc(F)cc4)c3C=C1CCN(S(=O)(=O)c1ccc(C(F)(F)F)cc1)C2 [Example 5I, (R)-(1-(4-fluorophenyl)-6-((4-(trifluoromethyl)phenyl)sulfonyl)-4,4a,5,6,7,8-hexahydro-1H-pyrazolo[3,4-g]isoquinolin-4a-yl)(thiazol-5-yl)methanone] | – | – | > 100 | < 0.5
Cc1ccc(S(=O)(=O)N2CCC3=Cc4c(cnn4-c4ccc(F)cc4)C[C@]3(C(=O)c3ccccn3)C2)cc1 [Example 2O, (R)-(1-(4-fluorophenyl)-6-tosyl-4,4a,5,6,7,8-hexahydro-1H-pyrazolo [3,4-g]isoquinolin-4a-yl)(pyridin-2-yl)methanone] | – | < 20 | – | < 0.5
O=C(c1ccccn1)[C@]12Cc3cnn(-c4ccc(F)cc4)c3C=C1CCN(S(=O)(=O)c1ccc(F)c(F)c1)C2 [Example 11P, (R)-(6-((3,4-difluorophenyl)sulfonyl)-1-(4-fluorophenyl)-4,4a,5,6,7,8-hexahydro-1H-pyrazolo[3,4-g]isoquinolin-4a-yl)(pyridin-2-yl)methanone] | – | – | < 20 | < 0.5
CCCn1cc(S(=O)(=O)N2CCC3=Cc4c(cnn4-c4ccc(F)cc4)C[C@]3(C(=O)c3ccccn3)C2)cn1 [Example 11CA, (R)-(1-(4-fluorophenyl)-6-((1-propyl-1H-pyrazol-4-yl)sulfonyl)-4,4a,5,6,7,8-hexahydro-1H-pyrazolo[3,4-g]isoquinolin-4a-yl)(pyridin-2-yl) methanone] | < 0.5 | < 20 | – | –
Cc1ccnc(C(=O)[C@]23Cc4cnn(-c5ccc(F)cc5)c4C=C2CCN(S(=O)(=O)c2ccc4c(c2)OCCO4)C3)c1 [Example 11AR, (R)-(6-((2,3-dihydrobenzo[b][1,4]dioxin-6-yl)sulfonyl)-1-(4-fluorophenyl)-4,4a,5,6,7,8-hexahydro-1H-pyrazolo[3,4-g]isoquinolin-4a-yl)(4-methylpyridin-2-yl)methanone] | < 0.5 | < 20 | – | –
O=C(c1ccccn1)[C@]12Cc3cnn(-c4ccc(F)cc4)c3C=C1CCN(S(=O)(=O)c1cn[nH]c1)C2 [Example 11BS, (R)-(6-((1H-pyrazol-4-yl)sulfonyl)-1-(4-fluorophenyl)-4,4a,5,6,7,8-hexahydro-1H-pyrazolo[3,4-g]isoquinolin-4a-yl)(pyridin-2-yl)methanone] | 0.5 to 1 | 20 to 100 | – | –
O=C(c1ccccn1)[C@]12Cc3cnn(-c4ccc(F)cc4)c3C=C1CCN(S(=O)(=O)c1cncc(N3CCCCC3)c1)C2 [Example 10A, (R)-(1-(4-fluorophenyl)-6-((5-(piperidin-1-yl)pyridin-3-yl)sulfonyl)-4,4a,5,6,7,8-hexahydro-1H-pyrazolo[3,4-g]isoquinolin-4a-yl)(pyridin-2-yl)methanone] | < 0.5 | – | – | –
Cn1cc(S(=O)(=O)N2CCC3=Cc4c(cnn4-c4ccc(F)cc4)C[C@]3(C(=O)c3ccccn3)C2)ccc1=O [Example 17, (R)-5-((1-(4-fluorophenyl)-4a-picolinoyl-4a,5,7,8-tetrahydro-1H-pyrazolo [3,4-g]isoquinolin-6 (4H)-yl)sulfonyl)-1-methylpyridin-2 (1H)-one] | – | ≥ 100 | – | –
